Drawing on US12312347B2, “Azaindole derivative and use thereof as FGFR and C-Met inhibitor” (Wuxi Life Fountain Biotech Co., Ltd, priority 2018, dated 2025), this text covers IC50 for 19 compounds.

pIC50: −log10 of the molar value. Structures can show the parent of a compound that is named as a salt. Where only a bound is given, the exact number is not on record here.

The target in the first experiment is T1, human c-Met (Homo sapiens, UniProt P08581).
T1 construct: purchased Invitrogen PV3143
T1 sequence (P08581 25-1390): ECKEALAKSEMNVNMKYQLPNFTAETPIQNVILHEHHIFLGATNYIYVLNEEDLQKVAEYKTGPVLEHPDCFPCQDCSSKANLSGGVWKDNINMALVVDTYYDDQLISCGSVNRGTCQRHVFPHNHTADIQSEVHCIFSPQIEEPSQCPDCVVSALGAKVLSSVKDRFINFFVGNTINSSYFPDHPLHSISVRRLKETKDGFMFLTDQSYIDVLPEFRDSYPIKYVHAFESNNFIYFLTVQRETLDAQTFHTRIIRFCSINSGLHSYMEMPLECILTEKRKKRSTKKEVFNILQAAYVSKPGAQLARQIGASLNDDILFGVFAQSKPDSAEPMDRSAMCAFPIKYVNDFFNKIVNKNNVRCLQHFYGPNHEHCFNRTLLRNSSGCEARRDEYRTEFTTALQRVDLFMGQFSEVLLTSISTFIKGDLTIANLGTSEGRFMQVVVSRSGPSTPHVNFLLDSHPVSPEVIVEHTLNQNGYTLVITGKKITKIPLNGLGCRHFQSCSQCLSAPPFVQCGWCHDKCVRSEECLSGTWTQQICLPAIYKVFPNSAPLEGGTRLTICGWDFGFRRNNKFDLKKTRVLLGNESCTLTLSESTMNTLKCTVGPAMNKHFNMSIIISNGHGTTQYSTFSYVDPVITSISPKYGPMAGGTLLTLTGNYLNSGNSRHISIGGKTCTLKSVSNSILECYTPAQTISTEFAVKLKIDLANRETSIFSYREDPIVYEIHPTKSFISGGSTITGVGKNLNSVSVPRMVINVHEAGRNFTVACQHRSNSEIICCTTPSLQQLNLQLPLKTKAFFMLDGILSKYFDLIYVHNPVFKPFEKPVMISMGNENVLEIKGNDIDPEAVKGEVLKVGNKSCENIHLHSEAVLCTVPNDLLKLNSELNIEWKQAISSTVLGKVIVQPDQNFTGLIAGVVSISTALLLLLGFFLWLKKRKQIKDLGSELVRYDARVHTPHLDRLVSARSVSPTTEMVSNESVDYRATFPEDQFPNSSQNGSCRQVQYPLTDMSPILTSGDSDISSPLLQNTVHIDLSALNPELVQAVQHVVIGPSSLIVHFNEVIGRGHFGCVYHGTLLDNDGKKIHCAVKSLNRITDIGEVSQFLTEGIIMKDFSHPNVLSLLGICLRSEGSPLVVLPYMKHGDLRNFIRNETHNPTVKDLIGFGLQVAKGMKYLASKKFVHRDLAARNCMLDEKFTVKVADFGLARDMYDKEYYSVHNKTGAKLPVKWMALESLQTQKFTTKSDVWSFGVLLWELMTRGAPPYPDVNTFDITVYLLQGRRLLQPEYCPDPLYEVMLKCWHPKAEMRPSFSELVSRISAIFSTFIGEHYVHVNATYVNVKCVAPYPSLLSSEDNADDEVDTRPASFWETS
Nature of the experiment: 33P isotope-labeled kinase activity test, c-Met. The class given is biochemical. Conditions: ATP 10 μM. The procedure:
(§1) The inhibitory activities of the tested compounds on human FGFR1, FGFR4, and c-Met were evaluated by the IC50 values measured using ^33P isotope-labeled kinase activity test (Reaction Biology Corp).
(§2) Buffer condition: 20 mM Hepes (pH 7.5), 10 mM MgCl2, 1 mM EGTA, 0.02% Brij35, 0.02 mg/mL BSA, 0.1 mM Na3VO4, 2 mM DTT, 1% DMSO.
(§3) Test procedure: The test compounds were dissolved in DMSO at room temperature and formulated to be 10 mM solutions for later use. The substrates were dissolved in freshly prepared buffer, and kinases to be tested were added and mixed well. The test compounds dissolved in DMSO were added to the above mixed reaction solutions by acoustic technique (Echo 550). The concentration of the compound in reaction solution was 1 μM, 0.25 μM, 0.156 μM, 3.91 nM, 0.977 nM, 0.244 nM, 0.061 nM, 0.0153 nM, 0.00381 nM or 10 μM, 2.50 μM, 0.62 μM, 0.156 μM, 39.1 nM, 9.8 nM, 2.4 nM, 0.61 nM, 0.15 nM, 0.038 nM. After incubation for 15 min, ^33P-ATP (activity 0.01 μCi/μL, corresponding concentrations are listed in Table 1) was added to start the reaction. Supplier item number, batch number, as well as the concentration information in the reaction solution of FGFR1, FGFR4, c-Met and substrates thereof are listed in Table 1. […] The kinase activity data are expressed by comparison between the kinase activity in the test compound group and the kinase activity in the blank group (containing DMSO only). IC50 values were obtained by curve fitting with Prism4 software (GraphPad).
One may read the pIC50 as the IC50 on a negative log10 scale, so that one unit is a factor of ten. High values mean a low IC50, low ones a high IC50. Take `CC(c1c(Cl)ccc(F)c1Cl)c1c[nH]c2ncc(-c3cnn(CCO)c3)cc12` (single isomer, unassigned) [Comparative Compound 1a, reference compound]: the negative-log IC50 (pIC50) was 6.12.
Still for that read-out and setting: the value for `CC(c1c(Cl)ccc(F)c1Cl)c1c[nH]c2ncc(-c3cnn(CCO)c3)cc12` (stereo not shown) [Comparative Compound 1b, reference compound] was 7.95; that for `COc1ccc(Cl)c(Cc2c[nH]c3ncc(-c4cnn(C5CCNCC5)c4)nc23)c1Cl` [Embodiment 7] was 7.38; that for `COc1cc(OC)c(F)c(Cc2c[nH]c3ncc(-c4cnn(C5CCNCC5)c4)cc23)c1F` [Embodiment 9] was 7.95.
`COc1cc(OC)c(F)c(Cc2c[nH]c3ncc(-c4cn(C5CCNCC5)nc4C)cc23)c1F` [Embodiment 32] gave a pIC50 of 8.21.
The same measure, in the same setting: next, `CCN1CCC(n2cc(-c3cnc4[nH]cc(Cc5c(F)ccc(OC)c5F)c4c3)cn2)CC1` [Embodiment 38]: 8.04; `CCN1CCC(n2cc(-c3cnc4[nH]cc(Cc5c(F)ccc(OC)c5F)c4c3)c(C#N)n2)CC1` [Embodiment 45]: 8.04.
Same read-out and setting: next, `CCN1CCC(n2ccc(-c3cnc4[nH]cc(Cc5c(F)c(OC)nc(OC)c5F)c4c3)n2)CC1` [Embodiment 75]: 8.49.
Take `COc1cc(OC)c(F)c(Cc2c[nH]c3ncc(-c4ccnc(N5CCN(C)CC5)c4)cc23)c1F` [Embodiment 78]: the negative logarithm of the IC50 (pIC50) is 6.85.
Same read-out and setting: next, `COc1cc(OC)c(F)c(Cc2n[nH]c3ncc(-c4cnn(C5CCNCC5)c4)cc23)c1F` [Hydrochloride of embodiment 2]: 8.11.
`CCN1CCC(n2cc(-c3cnc4[nH]nc(Cc5c(F)c(OC)cc(OC)c5F)c4c3)cn2)CC1` [Hydrochloride of embodiment 3] showed a pIC50 of 7.12.
Still for that read-out and setting: the value for `CCN1CCC(n2cc(-c3cnc4[nH]nc(Cc5c(F)ccc(OC)c5F)c4c3)cn2)CC1` [Hydrochloride of embodiment 4] was 6.75; that for `COc1ccc(F)c(Cc2c[nH]c3ncc(-c4cn(C5CCNCC5)nc4C)cc23)c1F` [Hydrochloride of embodiment 36] was 7.56; that for `CCN1CCC(n2cc(-c3cnc4[nH]cc(Cc5c(F)c(OC)cc(OC)c5F)c4c3)c(C)n2)CC1` [Hydrochloride of embodiment 37] was 7.48.
On the same count and under the same terms, the value for `COc1cc(OC)c(F)c(Cc2c[nH]c3ncc(-c4cn(C5CCN(C)CC5)nc4C#N)cc23)c1F` [Hydrochloride of embodiment 43] was 7.24.
Consider `CCN1CCC(c2cncc(-c3cnc4[nH]cc(Cc5c(F)c(OC)cc(OC)c5F)c4c3)n2)CC1` [Hydrochloride of embodiment 65], for which the negative-log IC50 (pIC50) is 6.87.
The same measure, in the same setting: the value for `COc1cc(OC)c(F)c(Cc2c[nH]c3ncc(-c4cnn(CCNC(C)C)c4)cc23)c1F` [Hydrochloride of embodiment 68] was 7.27.
For `COc1cc(OC)c(F)c(Cc2c[nH]c3ncc(-c4cnn(CCCNC(C)C)c4)cc23)c1F` [Hydrochloride of embodiment 72], the negative logarithm of the IC50 (pIC50) was 7.15.
Same read-out and setting: next, `CCN1CCC(n2cc(-c3cnc4[nH]c(C)c(Cc5c(F)c(OC)cc(OC)c5F)c4c3)cn2)CC1` [Hydrochloride of embodiment 74]: 8.38.

The next experiment deals with T2, human FGFR4 (Homo sapiens, UniProt P22455).
T2 construct: purchased Invitrogen P3054
T2 sequence (P22455 22-802): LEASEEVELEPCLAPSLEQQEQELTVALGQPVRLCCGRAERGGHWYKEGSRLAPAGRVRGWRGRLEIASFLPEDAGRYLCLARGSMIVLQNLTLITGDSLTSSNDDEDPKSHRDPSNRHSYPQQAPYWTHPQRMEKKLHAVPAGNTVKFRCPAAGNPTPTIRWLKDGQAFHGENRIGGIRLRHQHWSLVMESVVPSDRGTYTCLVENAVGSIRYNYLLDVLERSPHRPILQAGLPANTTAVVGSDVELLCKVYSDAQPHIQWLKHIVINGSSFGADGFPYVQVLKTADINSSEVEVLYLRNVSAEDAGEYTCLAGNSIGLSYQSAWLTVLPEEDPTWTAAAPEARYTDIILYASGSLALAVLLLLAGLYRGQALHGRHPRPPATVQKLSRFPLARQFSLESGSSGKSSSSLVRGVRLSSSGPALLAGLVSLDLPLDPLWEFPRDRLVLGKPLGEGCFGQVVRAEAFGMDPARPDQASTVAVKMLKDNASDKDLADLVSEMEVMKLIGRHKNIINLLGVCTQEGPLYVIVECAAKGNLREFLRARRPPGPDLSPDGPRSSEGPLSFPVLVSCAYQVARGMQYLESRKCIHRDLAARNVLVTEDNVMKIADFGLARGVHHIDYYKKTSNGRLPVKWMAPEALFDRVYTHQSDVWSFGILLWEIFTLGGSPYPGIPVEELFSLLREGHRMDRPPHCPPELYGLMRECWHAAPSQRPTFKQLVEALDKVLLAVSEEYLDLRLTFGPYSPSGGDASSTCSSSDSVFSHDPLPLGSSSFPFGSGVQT
As to the kind of experiment: 33P isotope-labeled kinase activity test, FGFR4. The class given is biochemical. The following applies: ATP 100 μM. The method, then: as §1, §2, §3
Take `CC(c1c(Cl)ccc(F)c1Cl)c1c[nH]c2ncc(-c3cnn(CCO)c3)cc12` (single isomer, unassigned) [Comparative Compound 1a, reference compound]: the negative logarithm of the IC50 (pIC50) was less than 5.00.
Still for that read-out and setting: next, `CC(c1c(Cl)ccc(F)c1Cl)c1c[nH]c2ncc(-c3cnn(CCO)c3)cc12` (stereo not shown) [Comparative Compound 1b, reference compound]: 5.29; `COc1ccc(Cl)c(Cc2c[nH]c3ncc(-c4cnn(C5CCNCC5)c4)nc23)c1Cl` [Embodiment 7]: less than 5.00.
Take `COc1cc(OC)c(F)c(Cc2c[nH]c3ncc(-c4cnn(C5CCNCC5)c4)cc23)c1F` [Embodiment 9]: the negative-log IC50 (pIC50) was 7.74.
`COc1cc(OC)c(F)c(Cc2c[nH]c3ncc(-c4cn(C5CCNCC5)nc4C)cc23)c1F` [Embodiment 32] had a pIC50 of 7.87.
With `CCN1CCC(n2cc(-c3cnc4[nH]cc(Cc5c(F)ccc(OC)c5F)c4c3)cn2)CC1` [Embodiment 38], the pIC50 was 6.22.
`CCN1CCC(n2cc(-c3cnc4[nH]cc(Cc5c(F)ccc(OC)c5F)c4c3)c(C#N)n2)CC1` [Embodiment 45] gave a pIC50 of 6.45.
The same measure, in the same setting: next, `CCN1CCC(n2ccc(-c3cnc4[nH]cc(Cc5c(F)c(OC)nc(OC)c5F)c4c3)n2)CC1` [Embodiment 75]: 7.98.
On the same count and under the same terms, next, `COc1cc(OC)c(F)c(Cc2c[nH]c3ncc(-c4ccnc(N5CCN(C)CC5)c4)cc23)c1F` [Embodiment 78]: 8.01.
Same read-out and setting: next, `COc1cc(OC)c(F)c(Cc2n[nH]c3ncc(-c4cnn(C5CCNCC5)c4)cc23)c1F` [Hydrochloride of embodiment 2]: 6.86.
Regarding `CCN1CCC(n2cc(-c3cnc4[nH]nc(Cc5c(F)c(OC)cc(OC)c5F)c4c3)cn2)CC1` [Hydrochloride of embodiment 3], the pIC50 was 6.83.
For `CCN1CCC(n2cc(-c3cnc4[nH]nc(Cc5c(F)ccc(OC)c5F)c4c3)cn2)CC1` [Hydrochloride of embodiment 4], the pIC50 is 6.10.
`COc1ccc(F)c(Cc2c[nH]c3ncc(-c4cn(C5CCNCC5)nc4C)cc23)c1F` [Hydrochloride of embodiment 36] gave a pIC50 of 6.16.
For the compound `CCN1CCC(n2cc(-c3cnc4[nH]cc(Cc5c(F)c(OC)cc(OC)c5F)c4c3)c(C)n2)CC1` [Hydrochloride of embodiment 37], the pIC50 was 7.28.
On the same count and under the same terms, next, `COc1cc(OC)c(F)c(Cc2c[nH]c3ncc(-c4cn(C5CCN(C)CC5)nc4C#N)cc23)c1F` [Hydrochloride of embodiment 43]: 7.21; `CCN1CCC(c2cncc(-c3cnc4[nH]cc(Cc5c(F)c(OC)cc(OC)c5F)c4c3)n2)CC1` [Hydrochloride of embodiment 65]: 8.57; `COc1cc(OC)c(F)c(Cc2c[nH]c3ncc(-c4cnn(CCNC(C)C)c4)cc23)c1F` [Hydrochloride of embodiment 68]: 8.00.
The compound `COc1cc(OC)c(F)c(Cc2c[nH]c3ncc(-c4cnn(CCCNC(C)C)c4)cc23)c1F` [Hydrochloride of embodiment 72] gave a negative-log IC50 (pIC50) of 7.27.
On the same count and under the same terms, next, `CCN1CCC(n2cc(-c3cnc4[nH]c(C)c(Cc5c(F)c(OC)cc(OC)c5F)c4c3)cn2)CC1` [Hydrochloride of embodiment 74]: 7.25.

For a further experiment, the target named is T3, human FGFR1 (Homo sapiens, UniProt P11362).
T3 construct: purchased Invitrogen PV3146
T3 sequence (P11362 22-822): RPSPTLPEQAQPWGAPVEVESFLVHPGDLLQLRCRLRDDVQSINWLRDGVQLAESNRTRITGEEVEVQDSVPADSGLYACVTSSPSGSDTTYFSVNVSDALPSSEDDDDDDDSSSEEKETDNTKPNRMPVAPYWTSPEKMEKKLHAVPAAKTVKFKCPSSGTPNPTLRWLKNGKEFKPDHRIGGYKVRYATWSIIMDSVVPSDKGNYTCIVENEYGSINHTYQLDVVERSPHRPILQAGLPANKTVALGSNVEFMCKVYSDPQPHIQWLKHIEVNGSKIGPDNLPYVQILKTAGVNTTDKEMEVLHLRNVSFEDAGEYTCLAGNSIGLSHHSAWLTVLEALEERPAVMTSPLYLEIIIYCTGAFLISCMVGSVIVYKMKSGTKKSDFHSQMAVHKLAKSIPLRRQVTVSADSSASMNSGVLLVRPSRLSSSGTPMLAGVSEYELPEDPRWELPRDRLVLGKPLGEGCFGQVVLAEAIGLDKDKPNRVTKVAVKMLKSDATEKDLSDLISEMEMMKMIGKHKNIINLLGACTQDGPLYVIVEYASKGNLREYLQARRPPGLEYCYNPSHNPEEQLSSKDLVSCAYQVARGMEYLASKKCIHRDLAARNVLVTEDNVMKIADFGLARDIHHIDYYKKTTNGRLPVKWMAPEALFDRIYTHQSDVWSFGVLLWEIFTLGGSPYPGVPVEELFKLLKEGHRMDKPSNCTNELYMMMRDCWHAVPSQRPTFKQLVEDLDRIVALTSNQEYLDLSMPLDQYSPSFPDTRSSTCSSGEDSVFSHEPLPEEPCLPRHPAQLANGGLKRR
As to the kind of experiment: 33P isotope-labeled kinase activity test, FGFR1. Conditions: ATP 5 μM. The class given is biochemical. The method, then: as §1, §2
as §3, with “The concentration of the compound in reaction solution was 1 μM, 0.25 μM, 0.156 μM, 3.91 nM, 0.977 nM, 0.244 nM, 0.061 nM, 0.0153 nM, 0.00381 nM or 10 μM, 2.50 μM, 0.62 μM, 0.156 μM, 39.1 nM, 9.8 nM, 2.4 nM, 0.61 nM, 0.15 nM, 0.038 nM.” left out
With `COc1ccc(Cl)c(Cc2c[nH]c3ncc(-c4cnn(C5CCNCC5)c4)nc23)c1Cl` [Embodiment 7], the pIC50 is 7.07.
`COc1cc(OC)c(F)c(Cc2c[nH]c3ncc(-c4cnn(C5CCNCC5)c4)cc23)c1F` [Embodiment 9] had a pIC50 of 9.10.
